Assay results from patent US10925856B2, “Methods and compositions involving bucindolol for the treatment of atrial fibrillation” (priority 2018, dated 2021).

Columns and labels:
[1] = test system: plasma norepinephrine; test: Plasma norepinephrine (HPLC with electrochemical detection); conditions: for Norepinephrine, ΔWeek 12 Mean ± SEM / Norepinephrine, ΔWeek 12 Median / Norepinephrine, ΔWeek 24 Mean ± SEM / Norepinephrine, ΔWeek 24 Median: change from baseline
[2] = test system: patients with HF and/or AF; conditions: cited from earlier work
[3] = Systolic blood pressure and heart rate by scheduled visit; format: in vivo, human
Text: Block is defined as the first of any of the following: 1) 3rd degree heart block (complete heart block); 2) any 2nd degree heart block with the presence of symptoms attributable to, and temporally correlated with the occurrence of heart block which include any of the following: Near-fainting or fainting (syncope)/Dizziness; Weakness or Fatigue; Shortness of breath; Chest pain; or 3) 2nd or 3rd degree heart block requiring implantation of a permanent pacemaker (with or without defibrillator). • Data source: • CVEVENT and AE eCRF forms. • Overall incidence and severity of treatment-emergent AEs/SAEs over time during the Total Study Period. Also events associated with device implantation. […] The AEs of special interest will be tabulated according to the following characteristics. • Development of treatment-emergent neoplastic conditions. • Progression or worsening of pre-study neoplastic conditions. • Progression or worsening of treatment-emergent neoplastic conditions. • Data source: • AE, NEOPLHX and NEOPLAS eCRF forms. • Clinical Chemistry and Hematology. • Visit collection: screen, start of follow-up Week 0 (protocol versions 1 and 2), Week 4 (protocol versions 3 and 4), Week 12 (protocol versions 3 and 4), Week 24, every 24 weeks during extension, end of treatment and end of study. […] Randomization Visit measurement prior to first dose will serve as the baseline. Will be analyzed at Week 0, 4, 12 and 24 visits as well as end of treatment and end of study. • Change from baseline to each analysis visit will be calculated and analyzed with descriptive statistics. • The numbers and percentages of patients with QTc increase from baseline exceeding 60 ms at any time point during the study. • Data source: • ECG eCRF form. • Vital signs and weight (data source: VITALS eCRF form). • Measured at every in-clinic visit. Randomization Visit measurement prior to first dose will serve as the baseline. Will be analyzed at Week 0, 4, 12 and 24 visits as well as end of treatment and end of study. • Change from baseline to each analysis visit will be calculated and analyzed with descriptive statistics. • Data source: • VITALS eCRF form. • Proportion of patients attaining target study drug dose during the Drug Titration Period. Will be calculated for all patients, those receiving β-blocker therapy prior to randomization and those not previously receiving β-blocker therapy. • Data Sources: • VISREC and DRUGLOG eCRF forms.

[4] = Europe excluding Hungary (n = 48)

SMILES: COCCc1ccc(OCC(O)CNC(C)C)cc1 (centres unmarked) [metoprolol, metoprolol succinate, reference compound]
- Plasma norepinephrine, Week 4 Mean ([1]; Canada): 613 pg/mL
- Plasma norepinephrine, Week 4 Median ([1]; Canada): 605 pg/mL
- Plasma norepinephrine, change from baseline to Week 4, Mean ±SEM ([1]; Canada): -97 pg/mL
- Plasma norepinephrine, change from baseline to Week 4, Median ([1]; Canada): -59 pg/mL
- Norepinephrine, Baseline Mean ± SD ([1]; Canada (n = 59)): 674 ± 429 pg/mL
- Norepinephrine, Baseline Median ([1]; Canada (n = 59)): 541 pg/mL
- Norepinephrine, Week 12 Mean ± SD ([1]; Canada (n = 59)): 577 ± 273 pg/mL
- Norepinephrine, Week 12 Median ([1]; Canada (n = 59)): 563 pg/mL
- Norepinephrine, Week 24 Mean ± SD ([1]; Canada (n = 59)): 722 ± 303 pg/mL
- Norepinephrine, Week 24 Median ([1]; Canada (n = 59)): 690 pg/mL
- Change in NE at Week 4, median (Q1, Q3) ([1]; Entire Cohort): −10 (198,121) pg/ml
- Plasma norepinephrine, Week 4 Mean ([1]; Entire Cohort): 617 pg/mL
- Plasma norepinephrine, Week 4 Median ([1]; Entire Cohort): 570 pg/mL
- Plasma norepinephrine, change from baseline to Week 4, Mean ±SEM ([1]; Entire Cohort): 36 ± 32 pg/mL
- Plasma norepinephrine, change from baseline to Week 4, Median ([1]; Entire Cohort): -10 pg/mL
- Norepinephrine, Baseline Mean ± SD ([1]; Entire Cohort (n = 267)): 664 ± 359 pg/mL
- Norepinephrine, Baseline Median ([1]; Entire Cohort (n = 267)): 590 pg/mL
- Norepinephrine, Week 12 Mean ± SD ([1]; Entire Cohort (n = 267)): 605 ± 266 pg/mL
- Norepinephrine, Week 12 Median ([1]; Entire Cohort (n = 267)): 566 pg/mL
- Norepinephrine, Week 24 Mean ± SD ([1]; Entire Cohort (n = 267)): 690 ± 414 pg/mL
- Norepinephrine, Week 24 Median ([1]; Entire Cohort (n = 267)): 586 pg/mL
- Plasma norepinephrine, change from baseline to Week 4, Mean ±SEM ([1]; Entire Cohort, listed as Met): -36 pg/mL
- Plasma norepinephrine, Week 4 Mean ([1]; Europe excluding Hungary): 676 pg/mL
- Plasma norepinephrine, Week 4 Median ([1]; Europe excluding Hungary): 612 pg/mL
- Plasma norepinephrine, change from baseline to Week 4, Mean ±SEM ([1]; Europe excluding Hungary): -18 pg/mL
- Plasma norepinephrine, change from baseline to Week 4, Median ([1]; Europe excluding Hungary): -12 pg/mL
- Norepinephrine, Baseline Mean ± SD [1, 4]: 675 ± 250 pg/mL
- Norepinephrine, Baseline Median [1, 4]: 592 pg/mL
- Norepinephrine, Week 12 Mean ± SD [1, 4]: 640 ± 283 pg/mL
- Norepinephrine, Week 12 Median [1, 4]: 614 pg/mL
- Norepinephrine, Week 24 Mean ± SD [1, 4]: 904 ± 348 pg/mL
- Norepinephrine, Week 24 Median [1, 4]: 924 pg/mL
- Plasma norepinephrine, Week 4 Mean ([1]; Hungary): 530 pg/mL
- Plasma norepinephrine, Week 4 Median ([1]; Hungary): 460 pg/mL
- Plasma norepinephrine, change from baseline to Week 4, Mean ±SEM ([1]; Hungary): -35 pg/mL
- Plasma norepinephrine, change from baseline to Week 4, Median ([1]; Hungary): -70 pg/mL
- Norepinephrine, Baseline Mean ± SD ([1]; Hungary (n = 33)): 627 ± 258 pg/mL
- Norepinephrine, Baseline Median ([1]; Hungary (n = 33)): 571 pg/mL
- Norepinephrine, Week 12 Mean ± SD ([1]; Hungary (n = 33)): 716 ± 308 pg/mL
- Norepinephrine, Week 12 Median ([1]; Hungary (n = 33)): 590 pg/mL
- Norepinephrine, Week 24 Mean ± SD ([1]; Hungary (n = 33)): 716 ± 301 pg/mL
- Norepinephrine, Week 24 Median ([1]; Hungary (n = 33)): 668 pg/mL
- Plasma norepinephrine, Week 4 Mean ([1]; U.S.): 616 pg/mL
- Plasma norepinephrine, Week 4 Median ([1]; U.S.): 556 pg/mL
- Plasma norepinephrine, change from baseline to Week 4, Mean ±SEM ([1]; U.S.): -18 pg/mL
- Plasma norepinephrine, change from baseline to Week 4, Median ([1]; U.S.): +29 pg/ml
- Norepinephrine, Baseline Mean ± SD ([1]; U.S. (n = 127)): 664 ± 386 pg/mL
- Norepinephrine, Baseline Median ([1]; U.S. (n = 127)): 599 pg/mL
- Norepinephrine, Week 12 Mean ± SD ([1]; U.S. (n = 127)): 576 ± 246 pg/mL
- Norepinephrine, Week 12 Median ([1]; U.S. (n = 127)): 560 pg/mL
- Norepinephrine, Week 24 Mean ± SD ([1]; U.S. (n = 127)): 639 ± 472 pg/mL
- Norepinephrine, Week 24 Median ([1]; U.S. (n = 127)): 519 pg/mL
- Within group NE change ([1]; Week 4, any of the regions): not associated with a within group NE change
- Norepinephrine, ΔWeek 12 Mean ± SEM ([1]; Canada (n = 59)): -111 ± 57 pg/mL
- Norepinephrine, ΔWeek 12 Median ([1]; Canada (n = 59)): -85 pg/mL
- Norepinephrine, ΔWeek 24 Mean ± SEM ([1]; Canada (n = 59)): 18 ± 75 pg/mL
- Norepinephrine, ΔWeek 24 Median ([1]; Canada (n = 59)): -10 pg/mL
- Norepinephrine, ΔWeek 12 Mean ± SEM ([1]; Entire Cohort (n = 267)): -64 ± 30 pg/mL
- Norepinephrine, ΔWeek 12 Median ([1]; Entire Cohort (n = 267)): -57 pg/mL
- Norepinephrine, ΔWeek 24 Mean ± SEM ([1]; Entire Cohort (n = 267)): 2 ± 33 pg/mL
- Norepinephrine, ΔWeek 24 Median ([1]; Entire Cohort (n = 267)): -24 pg/mL
- Norepinephrine, ΔWeek 12 Mean ± SEM [1, 4]: -52 ± 65 pg/mL
- Norepinephrine, ΔWeek 12 Median [1, 4]: -76 pg/mL
- Norepinephrine, ΔWeek 24 Median [1, 4]: 232 pg/mL
- Norepinephrine, ΔWeek 12 Mean ± SEM ([1]; Hungary (n = 33)): 144 ± 89 pg/mL
- Norepinephrine, ΔWeek 12 Median ([1]; Hungary (n = 33)): 37 pg/mL
- Norepinephrine, ΔWeek 24 Mean ± SEM ([1]; Hungary (n = 33)): 148 ± 336 pg/mL
- Norepinephrine, ΔWeek 24 Median ([1]; Hungary (n = 33)): -42 pg/mL
- Norepinephrine, ΔWeek 12 Mean ± SEM ([1]; U.S. (n = 127)): -100 ± 43 pg/mL
- Norepinephrine, ΔWeek 12 Median ([1]; U.S. (n = 127)): -66 pg/mL
- Norepinephrine, ΔWeek 24 Mean ± SEM ([1]; U.S. (n = 127)): -46 ± 40 pg/mL
- Norepinephrine, ΔWeek 24 Median ([1]; U.S. (n = 127)): -46 pg/mL
- Reduction in NE ([1]; week 12, entire cohort): 57 pg/mL
- Lowering of AF risk ([2]; HFrEF (MERIT-HF)): 48%
- Incidence of AF recurrence ([2]; persistent AF, ECV to SR, end of 6-month follow-up): 52%
- Heart rate reduction ([3]; 4, 12 and 24 weeks): greater heart rate reduction
- Heart Rate, Baseline Mean ± SEM ([3]; in vivo): 76.0 ± 1.5 bpm
- Heart Rate, Baseline Min, Max ([3]; in vivo): 43.0, 119
- Systolic Blood Pressure, Baseline Mean ± SEM ([3]; in vivo): 121.8 ± 1.4 mmHg
- Systolic Blood Pressure, Baseline Min, Max ([3]; in vivo): 90.0, 149
